From patent publication US7247456B2, “Preparation of fucosylated oligosaccharides” (Neose Technologies, Inc., priority 1998, dated 2007)
“Also recorded” adds a separate entry of the source. Like-named read-outs stand apart in the source and are kept apart here. One block for each molecule: values may come before it.

Key:
[1] = target: T1, E. coli K12 GDP-mannose dehydratase (GDP-mannose 4,6-dehydratase, GMD), recombinant wild type from pTGK:GMD (Escherichia coli, UniProt P0AC88); experiment: Cofactor (NADP+) dependence of GDP-mannose dehydratase (Table 5); assay type: biochemical
T1 construct: made in house; host or cells: E. coli JM101 (plasmid pTGK:GMD), supernatant of French press lysate
Description: (§1) C. Assay of GDP-Mannose Dehydratase
(§2) To assay GDP-mannose dehydratase activity, a reverse phase HPLC assay was developed. […] GDP-mannose dehydratase activity was determined by reacting GDP-mannose dehydratase extract with 480 nmole of GDP-mannose in 50 mM Tris pH 7.5, 0.15 mM NADP^+ (NADP^+ is absolutely required for GDP-mannose dehydratase activity) in a 100 μl reaction volume. Twenty μl of the assay mix was injected over the C18 column.
(§3) By comparing the peak area of the no enzyme control, corresponding to 200 nmole, the decrease in the peak area of GDP-mannose was used to directly measure the activity of GDP-mannose dehydratase by the following formulae: (No enzyme peak area)−(enzyme peak area)=(Peak area of GDP-mannose consumed) 1. (Peak area of GDP-mannose consumed)/(No enzyme peak area)=% of 200 nmole GDP-mannose consumed. 2.
(§4) To control for any carryover loss upon HPLC injection, 10 nmole of CTP was added to the sample to be analyzed.

fucosyltransferase V = target: T2, fucosyltransferase V (Homo sapiens, UniProt Q11128); conditions: literature statement; cited from earlier work
T2 sequence (Q11128 1-374): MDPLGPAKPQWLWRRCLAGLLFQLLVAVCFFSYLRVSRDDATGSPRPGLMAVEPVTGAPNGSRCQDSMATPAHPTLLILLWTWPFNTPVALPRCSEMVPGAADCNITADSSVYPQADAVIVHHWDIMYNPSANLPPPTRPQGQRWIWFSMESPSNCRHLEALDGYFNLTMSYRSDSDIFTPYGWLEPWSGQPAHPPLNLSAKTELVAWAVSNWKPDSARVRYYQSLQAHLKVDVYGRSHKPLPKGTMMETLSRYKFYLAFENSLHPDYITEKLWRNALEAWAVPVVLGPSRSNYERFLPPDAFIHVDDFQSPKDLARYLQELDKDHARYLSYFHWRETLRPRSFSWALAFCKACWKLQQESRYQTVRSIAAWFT

GDP-mannose dehydratase [2] = conditions: cited from earlier work
fucosyltransferases = conditions: cited from earlier work
GDP-mannose dehydratase [3] = target: T3, GDP-mannose dehydratase (Sus scrofa, UniProt F1RX12); conditions: cited from earlier work
T3 sequence (F1RX12 1-372): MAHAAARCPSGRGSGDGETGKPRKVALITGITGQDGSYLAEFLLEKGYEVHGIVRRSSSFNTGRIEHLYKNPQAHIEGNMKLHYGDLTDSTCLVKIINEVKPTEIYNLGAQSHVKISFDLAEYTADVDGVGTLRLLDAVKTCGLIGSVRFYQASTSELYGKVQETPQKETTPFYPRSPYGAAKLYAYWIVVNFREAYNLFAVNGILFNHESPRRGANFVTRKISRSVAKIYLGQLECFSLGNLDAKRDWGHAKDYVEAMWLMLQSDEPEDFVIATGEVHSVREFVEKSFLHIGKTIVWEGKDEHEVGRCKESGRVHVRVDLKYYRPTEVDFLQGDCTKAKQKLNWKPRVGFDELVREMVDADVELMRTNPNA

GDP-mannose dehydratase [4] = target: T4, GDP-mannose dehydratase (Escherichia coli, UniProt P0AC88); experiment: GDP-mannose dehydratase reverse phase HPLC activity assay; assay type: biochemical, E. coli; conditions: for effect on GDP-mannose dehydratase activity: concentrations ranging from 1-20 mM
T4 construct: made in house; host or cells: E. coli JM101 (plasmid pTGK:GMD), French-press lysate supernatant
Description: (§5) To assay GDP-mannose dehydratase activity, a reverse phase HPLC assay was developed. […] […] Twenty μl of the assay mix was injected over the C18 column.
as §3, §4

YEF B = YEF B (Escherichia coli, UniProt P32055, E255D/L256V); conditions: for YEF B Activity %: none = 100; for effect on YEF B activity: varying concentrations of metal ion
Sequence of YEF B (P32055 whole entry E255D/L256V): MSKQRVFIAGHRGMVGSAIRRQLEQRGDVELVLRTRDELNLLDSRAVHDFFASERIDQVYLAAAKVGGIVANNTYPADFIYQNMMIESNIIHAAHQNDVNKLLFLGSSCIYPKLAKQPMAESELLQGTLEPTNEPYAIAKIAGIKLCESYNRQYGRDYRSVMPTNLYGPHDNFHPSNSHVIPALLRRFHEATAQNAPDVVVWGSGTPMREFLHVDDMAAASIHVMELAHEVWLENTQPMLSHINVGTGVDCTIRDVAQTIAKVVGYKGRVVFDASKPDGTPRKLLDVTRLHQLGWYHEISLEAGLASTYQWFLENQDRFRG
Description: To assay YEF B activity, a reverse phase HPLC assay was developed. An Aquesil C18 reverse phase column was set up in-line on a Beckman 126 solvent monitor. The column was eluted isocratically with 0.5M KH2PO4 over twenty minutes with a flow rate of 1 ml/min. A photodiode array detector was employed to monitor the elution scanning the 210-300 nm wavelength range.
A coupled assay was employed to assay YEF B activity. This was required since its substrate, GDP-4-keto-6-deoxymannose, is unstable and not commercially available. Twenty mUnit of GDP-mannose dehydratase was allowed to react with 480 nMole of GDP-mannose for 20 minutes under standard assay conditions as previously. […] The reaction was allowed to proceed for ten minutes at which point the reaction was stopped by freezing on dry ice. After thawing 10 μl aliquots were analyzed by reverse phase HPLC analysis. The amount of GDP fucose formed was calculated by analyzing a separate assay mix in the absence of GDP-mannose dehydratase to yield a 100% value for the absorption peak of GDP-mannose. […] to yield percentage of GDP-fucose formed. (% GDP-fucose)(nMole GDP-mannose in reaction)=nMole GDP-fucose formed.
The assay pH was varied from 6.5 to 8.0 using MES and Tris as buffers. The standard assay mix contained 20 mUnit GDP-mannose dehydratase, […] GDP-mannose, […], 10 mUnit glucose dehydrogenase (to recycle NADPH utilized by YEF B), 50 mM buffer at the appropriate pH and YEF B at appropriate dilution. The reaction was allowed to proceed for 15 minutes at 37° C. and immediately frozen on dry ice to stop the reaction. Ten μl aliquots were removed after thawing and analyzed by reverse phase HPLC.

[5] = target: T5, fucosyltransferase V (FT V) (Homo sapiens, UniProt Q11128); experiment: Inhibition of fucosyltransferase V; assay type: biochemical; conditions: compared with GDP
T5 construct: printed for the preparative synthesis
T5 sequence (Q11128 1-374): T2 sequence (Q11128 1-374)

[6] = target: T1, E. coli K12 GDP-mannose dehydratase (GDP-mannose 4,6-dehydratase, GMD), recombinant wild type from pTGK:GMD; experiment: Linearity of the GDP-mannose dehydratase assay with time (product inhibition); assay type: biochemical; conditions: linear up to 30 minutes, up to 90% of substrate consumed
Description: as §1, §2, §3
Samples were thawed and immediately injected over an aquasil reverse phase HPLC column.

GDP-mannose dehydratase [7] = target: T6, GDP-mannose dehydratase (Escherichia coli, UniProt P0AC88); experiment: GDP-mannose dehydratase reverse phase HPLC activity assay; assay type: biochemical, E. coli; conditions: 10 mUnit alkaline phosphatase included in the assay
T6 construct: made in house; host or cells: E. coli JM101 (plasmid pTGK:GMD), French-press lysate supernatant
T6 sequence (P0AC88 whole entry, looked up): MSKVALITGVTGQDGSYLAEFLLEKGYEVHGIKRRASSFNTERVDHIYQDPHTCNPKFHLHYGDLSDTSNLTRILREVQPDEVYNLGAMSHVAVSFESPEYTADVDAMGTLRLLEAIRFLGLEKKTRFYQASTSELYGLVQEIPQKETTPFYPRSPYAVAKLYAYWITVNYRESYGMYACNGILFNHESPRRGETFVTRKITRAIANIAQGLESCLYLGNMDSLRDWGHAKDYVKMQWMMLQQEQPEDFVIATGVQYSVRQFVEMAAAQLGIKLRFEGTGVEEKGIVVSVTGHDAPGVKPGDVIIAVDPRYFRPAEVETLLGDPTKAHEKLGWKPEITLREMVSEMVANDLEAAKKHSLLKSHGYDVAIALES
Description: as §5, §3, §4

[8] = target: T1, E. coli K12 GDP-mannose dehydratase (GDP-mannose 4,6-dehydratase, GMD), recombinant wild type from pTGK:GMD; experiment: Inhibition of GDP-mannose dehydratase (GMD) by GDP-fucose, reverse phase HPLC assay (FIG. 5); assay type: biochemical
Description: as §1, §2, §3, §4
Since GDP-mannose dehydratase represents the first committed step in GDP-fucose biosynthesis it is possible that GDP-fucose is a feedback inhibitor of the enzyme. To determine if this is true, the standard assay was performed in the presence of increasing amounts of GDP-fucose. […]

Molecule: NC(=O)c1ccc[n+]([C@@H]2O[C@H](COP(=O)(O)OP(=O)(O)OC[C@H]3O[C@@H](n4cnc5c(N)ncnc54)[C@H](O)[C@@H]3O)[C@@H](O)[C@H]2O)c1 [NAD, NAD^+]
% GDP-mannose dehydratase activity ([1]; cofactor at 1 mM): not detected | substitution for NADP+ as cofactor ([1]; in place of NADP+): will not substitute for NADP^+

Molecule: Nc1nc2c(ncn2[C@@H]2O[C@H](COP(=O)(O)OP(=O)(O)O)[C@@H](O)[C@H]2O)c(=O)[nH]1 [GDP]
inhibition of fucosyltransferases (fucosyltransferase V): inhibit; also recorded: potent inhibitor | inhibition of GDP-mannose dehydratase (GDP-mannose dehydratase [2]): known to inhibit | inhibition of fucosyltransferases (fucosyltransferases): known to inhibit | inhibition of GDP-mannose dehydratase (GDP-mannose dehydratase [3]; literature statement): inhibit

Molecule: C[C@H]1O[C@H](OP(=O)(O)OP(=O)(O)OC[C@H]2O[C@@H](n3cnc4c(=O)[nH]c(N)nc43)[C@H](O)[C@@H]2O)[C@@H](O)[C@@H](O)C1=O [GDP-4-keto-6-deoxymannose]
inhibition of GDP-mannose dehydratase by its product (GDP-mannose dehydratase [4]; assay linear up to 90% of substrate consumed): does not inhibit the enzyme

Molecule: NC(=O)c1ccc[n+]([C@@H]2O[C@H](COP(=O)(O)OP(=O)(O)OC[C@H]3O[C@@H](n4cnc5c(N)ncnc54)[C@H](OP(=O)(O)O)[C@@H]3O)[C@@H](O)[C@H]2O)c1 [NADP]
% GDP-mannose dehydratase activity (GDP-mannose dehydratase [4]; 0.15 mM cofactor): 100% | % GDP-mannose dehydratase activity (GDP-mannose dehydratase [4]; 1 mM cofactor): 100%

Molecule: [Cl-].[Cl-].[Mg+2] [MgCl2]
YEF B Activity % (YEF B; 1 mM metal ion): 110% | YEF B Activity % (YEF B; 10 mM metal ion): 110% | effect on YEF B activity (YEF B): somewhat stimulatory | % GDP-mannose Dehydratase Activity mUnit/ml (GDP-mannose dehydratase [4]; 1 mM metal ion): 560 mUnit/ml | % GDP-mannose Dehydratase Activity mUnit/ml (GDP-mannose dehydratase [4]; 10 mM metal ion): 610 mUnit/ml | % GDP-mannose Dehydratase Activity mUnit/ml (GDP-mannose dehydratase [4]; 20 mM metal ion): 590 mUnit/ml | effect on GDP-mannose dehydratase activity (GDP-mannose dehydratase [4]): essentially no effect

Molecule: NC(=O)c1ccc[n+]([C@@H]2O[C@H](COP(=O)(O)OP(=O)(O)OC[C@H]3O[C@@H](n4cnc5c(N)ncnc54)[C@H](OP(=O)(O)O)[C@@H]3O)[C@@H](O)[C@H]2O)c1 [NADP, NADP^+]
activity at 1000 µM ([1]; cofactor at 1 mM): 100%

inhibitory potency relative to GDP (fold less potent) [5]: 10 ×
Molecule: Nc1nc2c(ncn2[C@@H]2O[C@H](COP(=O)(O)OP(=O)(O)OP(=O)(O)O)[C@@H](O)[C@H]2O)c(=O)[nH]1 [GTP]

Molecule: C[C@H]1O[C@H](OP(=O)(O)OP(=O)(O)OC[C@H]2O[C@@H](n3cnc4c(=O)[nH]c(N)nc43)[C@H](O)[C@@H]2O)[C@@H](O)[C@@H](O)C1=O [GDP-4-keto-6 deoxymannose, GDP-4-keto-6-deoxymannose]
inhibition of GDP-mannose dehydratase by the product [6]: does not inhibit the enzyme

Molecule: [Cl][Mn][Cl] [MnCl2]
YEF B Activity % (YEF B; 1 mM metal ion): 60% | YEF B Activity % (YEF B; 10 mM metal ion): 25% | effect on YEF B activity (YEF B): severely inhibited in a dose dependent manner | % GDP-mannose Dehydratase Activity mUnit/ml (GDP-mannose dehydratase [4]; 1 mM metal ion): 580 mUnit/ml | % GDP-mannose Dehydratase Activity mUnit/ml (GDP-mannose dehydratase [4]; 10 mM metal ion): 570 mUnit/ml | % GDP-mannose Dehydratase Activity mUnit/ml (GDP-mannose dehydratase [4]; 20 mM metal ion): 620 mUnit/ml | effect on GDP-mannose dehydratase activity (GDP-mannose dehydratase [4]): essentially no effect

Molecule: Alkaline Phosphatase
% GDP-mannose dehydratase activity (GDP-mannose dehydratase [7]): not detected | % GDP-mannose dehydratase activity (GDP-mannose dehydratase [7]; listed as alkaline phosphatase): severely attenuated

Molecule: NC(=O)c1ccc[n+]([C@@H]2O[C@H](COP(=O)(O)OP(=O)(O)OC[C@H]3O[C@@H](n4cnc5c(N)ncnc54)[C@H](O)[C@@H]3O)[C@@H](O)[C@H]2O)c1 [NAD]
% GDP-mannose dehydratase activity (GDP-mannose dehydratase [4]; 1 mM cofactor): not detected

Molecule: C[C@@H]1O[C@H](OP(=O)(O)OP(=O)(O)OC[C@H]2O[C@@H](n3cnc4c(=O)[nH]c(N)nc43)[C@H](O)[C@@H]2O)[C@@H](O)[C@H](O)[C@@H]1O [GDP-fucose]
IC50 ([8]; restated for the 0.2 kG scale production, quantity not given, read-out: inhibitor concentration ("40 μM inhibitor", see FIG. 5)): 40 µM | IC50 ([8]; standard assay: 480 nmole GDP-mannose, 50 mM Tris pH 7.5, 0.15 mM NADP+, 100 μl, increasing amounts of GDP-fucose, read-out: IC50): ~40 µM | remaining catalytic activity of GDP-mannose dehydratase (GDP-mannose dehydratase [2]; at 50 μM GDP-fucose): 10% | inhibition of GDP-mannose dehydratase (GDP-mannose dehydratase [2]): strongly inhibited | catalytic activity of GDP-mannose dehydratase remaining (GDP-mannose dehydratase [3]; at 50 μM GDP-fucose): 10%
